Columns and labels:
[1] = tested on: HCT116 (KRAS G13D) xenograft; assay: In vivo efficacy, xenograft; parameters: species or system BALB/c nude mice; conditions: 16 days
Protocol: (§1) Human-derived colorectal cancer cell lines, LS513, HCT-116, and HT29, were subcutaneously transplanted into 6-week-old female BALB/c nude mice to establish tumor models. Additionally, the mouse cancer cell line MC38 was subcutaneously transplanted into 6-week-old female and C57BL/6 mice to induce tumor formation. […]. The treatments were administered orally once daily for 2 weeks based on the growth rate observed in the vehicle group. Tumor volume was evaluated three times a week using the formula Tumor volume (TV) = (tumor short diameter ^2 × tumor long diameter)/2. The body weight of the mice was measured three times a week to assess potential toxicity in vivo. […]

[2] = tested on: HT29 (BRAF V600E) xenograft; assay: In vivo efficacy, xenograft; parameters: species or system BALB/c nude mice
Protocol: as §1

[3] = tested on: LS513 (KRAS G12D) xenograft; assay: In vivo efficacy, xenograft; parameters: species or system BALB/c nude mice; conditions: day 17
Protocol: as §1

[4] = 2-week repeated oral DRF study; format: in vivo; conditions: 500 mg/kg oral
[5] = Single oral dose, central nervous system; format: in vivo, ICR mice; conditions: single oral dose 500 mg/kg
[6] = molecular target: TIE2 (Homo sapiens, UniProt Q02763); assay: Eurofins kinase assay
TIE2, sequence (Q02763 23-1124): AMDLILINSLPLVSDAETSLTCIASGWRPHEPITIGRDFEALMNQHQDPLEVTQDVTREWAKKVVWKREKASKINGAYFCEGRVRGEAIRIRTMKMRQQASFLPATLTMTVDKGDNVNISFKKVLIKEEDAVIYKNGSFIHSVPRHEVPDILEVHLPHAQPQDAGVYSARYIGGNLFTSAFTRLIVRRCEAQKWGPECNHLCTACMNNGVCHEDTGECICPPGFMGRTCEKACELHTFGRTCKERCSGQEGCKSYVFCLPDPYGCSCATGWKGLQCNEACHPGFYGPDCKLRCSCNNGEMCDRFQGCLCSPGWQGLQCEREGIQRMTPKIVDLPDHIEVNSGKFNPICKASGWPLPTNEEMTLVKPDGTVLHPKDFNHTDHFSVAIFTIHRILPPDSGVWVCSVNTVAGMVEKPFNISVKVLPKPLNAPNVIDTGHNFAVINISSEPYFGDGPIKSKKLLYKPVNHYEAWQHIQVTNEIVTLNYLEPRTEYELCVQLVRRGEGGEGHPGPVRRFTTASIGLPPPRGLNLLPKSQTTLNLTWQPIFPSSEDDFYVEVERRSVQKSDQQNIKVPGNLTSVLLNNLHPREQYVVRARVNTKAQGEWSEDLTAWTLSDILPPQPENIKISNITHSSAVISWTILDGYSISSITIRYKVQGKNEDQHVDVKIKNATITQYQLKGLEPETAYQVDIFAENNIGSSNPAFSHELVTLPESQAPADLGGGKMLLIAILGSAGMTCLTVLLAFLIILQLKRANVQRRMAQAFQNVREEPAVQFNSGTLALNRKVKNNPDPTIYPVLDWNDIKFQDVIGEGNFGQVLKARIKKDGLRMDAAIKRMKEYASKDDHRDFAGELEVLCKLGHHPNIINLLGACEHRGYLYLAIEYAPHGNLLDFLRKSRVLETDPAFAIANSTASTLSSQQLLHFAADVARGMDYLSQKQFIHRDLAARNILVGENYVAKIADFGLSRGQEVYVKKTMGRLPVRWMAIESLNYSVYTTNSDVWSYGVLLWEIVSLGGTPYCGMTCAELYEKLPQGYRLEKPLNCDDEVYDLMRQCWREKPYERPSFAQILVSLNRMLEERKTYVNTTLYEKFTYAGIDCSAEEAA

[7] = molecular target: CSF1R (Homo sapiens, UniProt P07333); assay: Eurofins kinase assay
CSF1R, sequence (P07333 20-972): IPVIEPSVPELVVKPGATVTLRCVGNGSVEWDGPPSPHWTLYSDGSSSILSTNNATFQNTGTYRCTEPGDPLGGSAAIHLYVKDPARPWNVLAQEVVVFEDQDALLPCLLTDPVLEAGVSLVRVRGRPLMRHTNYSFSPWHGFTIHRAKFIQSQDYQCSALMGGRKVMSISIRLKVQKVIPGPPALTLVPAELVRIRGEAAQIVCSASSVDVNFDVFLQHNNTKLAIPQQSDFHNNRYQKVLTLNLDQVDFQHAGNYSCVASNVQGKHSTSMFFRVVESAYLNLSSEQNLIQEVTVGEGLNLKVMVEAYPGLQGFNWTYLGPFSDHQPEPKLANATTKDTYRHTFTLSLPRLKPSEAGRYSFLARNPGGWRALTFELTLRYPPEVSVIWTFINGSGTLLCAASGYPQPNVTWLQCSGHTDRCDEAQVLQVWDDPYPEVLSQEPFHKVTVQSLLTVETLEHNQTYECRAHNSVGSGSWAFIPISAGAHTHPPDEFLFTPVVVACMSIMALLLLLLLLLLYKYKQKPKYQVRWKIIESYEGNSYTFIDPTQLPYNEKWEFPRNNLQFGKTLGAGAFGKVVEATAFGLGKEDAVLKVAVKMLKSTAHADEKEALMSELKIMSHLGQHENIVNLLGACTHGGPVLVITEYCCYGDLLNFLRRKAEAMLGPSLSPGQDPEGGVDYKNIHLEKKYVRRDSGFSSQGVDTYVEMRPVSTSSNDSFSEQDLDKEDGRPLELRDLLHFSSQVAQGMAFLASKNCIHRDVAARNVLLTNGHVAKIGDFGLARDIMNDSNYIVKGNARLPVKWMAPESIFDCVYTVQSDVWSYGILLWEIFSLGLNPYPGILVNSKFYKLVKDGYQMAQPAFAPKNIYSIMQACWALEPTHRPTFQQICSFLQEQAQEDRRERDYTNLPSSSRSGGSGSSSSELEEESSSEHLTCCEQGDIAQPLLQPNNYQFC

[8] = molecular target: FGFR3(h) (Homo sapiens, UniProt P22607); assay: Eurofins kinase assay
[9] = molecular target: cSRC(h) (Homo sapiens, UniProt P12931); assay: Eurofins kinase assay
[10] = molecular target: PI3Kinase(p110a(H1047R)/p85a)(m) (Mus musculus, UniProt P42337, H1047R); assay: Eurofins kinase assay
[11] = molecular target: Fyn(h) (Homo sapiens, UniProt P06241); assay: Eurofins kinase assay
[12] = molecular target: PI3Kinase(p110a(E542K)/p85a)(m) (Mus musculus, UniProt P42337, E542K); assay: Eurofins kinase assay
[13] = molecular target: PI3Kinase(p110a(E545K)/p85a)(m) (Mus musculus, UniProt P42337, E545K); assay: Eurofins kinase assay
[14] = molecular target: BTK(h) (Homo sapiens, UniProt Q06187); assay: Eurofins kinase assay
[15] = molecular target: PKBα(h) (Homo sapiens, UniProt P31749); assay: Eurofins kinase assay
[16] = molecular target: ATM(h) (Homo sapiens, UniProt Q13315); assay: Eurofins kinase assay
[17] = molecular target: PKCι(h) (Homo sapiens, UniProt P41743); assay: Eurofins kinase assay
PKCι(h), sequence (P41743 whole entry): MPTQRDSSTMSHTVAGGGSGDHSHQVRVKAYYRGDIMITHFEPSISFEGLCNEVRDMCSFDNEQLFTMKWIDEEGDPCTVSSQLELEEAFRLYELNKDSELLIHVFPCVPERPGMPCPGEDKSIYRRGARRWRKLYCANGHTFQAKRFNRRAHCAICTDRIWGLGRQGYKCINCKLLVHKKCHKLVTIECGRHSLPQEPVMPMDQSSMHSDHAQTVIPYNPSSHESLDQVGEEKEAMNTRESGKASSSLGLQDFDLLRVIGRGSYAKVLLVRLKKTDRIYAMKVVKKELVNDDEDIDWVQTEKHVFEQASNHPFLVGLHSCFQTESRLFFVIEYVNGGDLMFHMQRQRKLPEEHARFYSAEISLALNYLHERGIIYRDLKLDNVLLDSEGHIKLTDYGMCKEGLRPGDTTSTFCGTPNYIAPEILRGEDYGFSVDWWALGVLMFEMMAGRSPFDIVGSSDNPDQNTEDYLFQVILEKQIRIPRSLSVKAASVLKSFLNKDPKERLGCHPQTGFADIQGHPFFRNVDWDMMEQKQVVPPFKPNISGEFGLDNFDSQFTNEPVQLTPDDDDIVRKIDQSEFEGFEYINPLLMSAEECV

[18] = molecular target: CDK7/cyclinH/MAT1(h) (Homo sapiens, UniProt P50613); assay: Eurofins kinase assay
[19] = molecular target: PKCθ(h) (Homo sapiens, UniProt Q04759); assay: Eurofins kinase assay
[20] = molecular target: Aurora-A(h) (Homo sapiens, UniProt O14965); assay: Eurofins kinase assay
Aurora-A(h), sequence (O14965 whole entry): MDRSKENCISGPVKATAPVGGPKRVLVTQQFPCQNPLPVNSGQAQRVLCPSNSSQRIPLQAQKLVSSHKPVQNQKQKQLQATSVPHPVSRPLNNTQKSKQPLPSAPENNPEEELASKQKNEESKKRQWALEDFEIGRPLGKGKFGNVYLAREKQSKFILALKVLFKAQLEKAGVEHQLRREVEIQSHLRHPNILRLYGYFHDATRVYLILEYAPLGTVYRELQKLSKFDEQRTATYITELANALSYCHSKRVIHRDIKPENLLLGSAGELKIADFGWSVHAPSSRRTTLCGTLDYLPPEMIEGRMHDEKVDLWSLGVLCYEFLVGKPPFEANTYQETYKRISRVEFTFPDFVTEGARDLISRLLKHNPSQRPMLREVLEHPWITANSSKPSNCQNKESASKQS

[21] = molecular target: PAR-1Bα(h) (Homo sapiens, UniProt Q7KZI7); assay: Eurofins kinase assay
PAR-1Bα(h), sequence (Q7KZI7 1-725 isoform Q7KZI7-4): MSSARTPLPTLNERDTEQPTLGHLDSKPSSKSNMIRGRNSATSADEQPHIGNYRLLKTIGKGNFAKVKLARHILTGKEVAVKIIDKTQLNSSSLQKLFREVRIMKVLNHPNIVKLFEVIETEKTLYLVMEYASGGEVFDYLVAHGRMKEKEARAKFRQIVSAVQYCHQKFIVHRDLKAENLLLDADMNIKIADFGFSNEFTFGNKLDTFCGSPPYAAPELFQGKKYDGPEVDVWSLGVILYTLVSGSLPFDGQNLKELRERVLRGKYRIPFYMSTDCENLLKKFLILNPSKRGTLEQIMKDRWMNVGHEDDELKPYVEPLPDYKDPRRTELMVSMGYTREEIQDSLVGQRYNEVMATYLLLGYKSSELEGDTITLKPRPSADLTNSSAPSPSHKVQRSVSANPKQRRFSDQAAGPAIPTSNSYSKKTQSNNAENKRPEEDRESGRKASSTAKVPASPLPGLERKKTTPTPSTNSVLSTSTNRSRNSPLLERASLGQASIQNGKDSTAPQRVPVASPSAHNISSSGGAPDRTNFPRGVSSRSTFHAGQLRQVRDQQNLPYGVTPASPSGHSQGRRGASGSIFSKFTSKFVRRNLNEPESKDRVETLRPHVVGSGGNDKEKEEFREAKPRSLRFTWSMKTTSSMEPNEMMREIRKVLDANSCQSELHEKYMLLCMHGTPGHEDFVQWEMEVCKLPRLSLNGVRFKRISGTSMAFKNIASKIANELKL

[22] = molecular target: CDK2/cyclinE(h) (Homo sapiens, UniProt P24941); assay: Eurofins kinase assay
[23] = molecular target: Rsk1(h) (Homo sapiens, UniProt Q15418); assay: Eurofins kinase assay
Rsk1(h), sequence (Q15418 whole entry): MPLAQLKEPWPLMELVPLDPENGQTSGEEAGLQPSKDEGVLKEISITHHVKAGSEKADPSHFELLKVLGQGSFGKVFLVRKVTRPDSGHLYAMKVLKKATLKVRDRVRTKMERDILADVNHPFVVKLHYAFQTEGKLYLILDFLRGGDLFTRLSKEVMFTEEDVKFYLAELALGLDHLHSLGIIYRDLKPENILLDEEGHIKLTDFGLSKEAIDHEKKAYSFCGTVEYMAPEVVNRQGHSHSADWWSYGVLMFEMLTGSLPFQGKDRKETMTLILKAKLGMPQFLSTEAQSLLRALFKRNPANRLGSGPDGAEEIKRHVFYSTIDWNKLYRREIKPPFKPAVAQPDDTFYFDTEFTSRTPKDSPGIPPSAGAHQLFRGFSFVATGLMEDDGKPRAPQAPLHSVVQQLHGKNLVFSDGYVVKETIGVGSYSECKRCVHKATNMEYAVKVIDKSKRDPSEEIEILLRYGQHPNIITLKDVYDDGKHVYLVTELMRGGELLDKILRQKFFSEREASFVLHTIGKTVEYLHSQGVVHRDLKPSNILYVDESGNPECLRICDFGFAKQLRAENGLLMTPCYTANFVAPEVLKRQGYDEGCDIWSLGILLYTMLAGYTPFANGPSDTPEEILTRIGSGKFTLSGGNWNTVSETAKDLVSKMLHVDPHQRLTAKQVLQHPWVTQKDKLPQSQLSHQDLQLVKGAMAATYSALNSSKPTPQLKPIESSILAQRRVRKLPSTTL

[24] = molecular target: PAK2(h) (Homo sapiens, UniProt Q13177); assay: Eurofins kinase assay
PAK2(h), sequence (Q13177 whole entry): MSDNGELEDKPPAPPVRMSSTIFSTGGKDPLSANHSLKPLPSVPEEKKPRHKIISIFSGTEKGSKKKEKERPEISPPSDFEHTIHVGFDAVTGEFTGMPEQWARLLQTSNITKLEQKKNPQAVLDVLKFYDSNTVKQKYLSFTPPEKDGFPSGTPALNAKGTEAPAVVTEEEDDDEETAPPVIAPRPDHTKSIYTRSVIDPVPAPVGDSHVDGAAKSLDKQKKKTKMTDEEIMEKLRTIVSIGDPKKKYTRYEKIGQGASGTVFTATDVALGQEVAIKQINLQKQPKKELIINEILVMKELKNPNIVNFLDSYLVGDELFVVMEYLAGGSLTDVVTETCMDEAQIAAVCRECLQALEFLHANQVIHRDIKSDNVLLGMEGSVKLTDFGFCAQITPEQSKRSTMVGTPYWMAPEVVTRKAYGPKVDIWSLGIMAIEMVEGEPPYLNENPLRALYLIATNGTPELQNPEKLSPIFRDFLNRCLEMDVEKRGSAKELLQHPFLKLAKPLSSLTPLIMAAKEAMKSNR

[25] = molecular target: MAPK1(h) (Homo sapiens, UniProt P27361); assay: Eurofins kinase assay
[26] = molecular target: Rsk2(h) (Homo sapiens, UniProt P51812); assay: Eurofins kinase assay
[27] = molecular target: CDK3/cyclinE(h) (Homo sapiens, UniProt Q00526); assay: Eurofins kinase assay
[28] = molecular target: PRAK(h) (Homo sapiens, UniProt Q8IW41); assay: Eurofins kinase assay
[29] = molecular target: SGK(h) (Homo sapiens, UniProt O00141); assay: Eurofins kinase assay
[30] = tested on: SW620 (KRAS G12V); assay: Cell proliferation assay (CellTiter-Glo); conditions: Homo sapiens, SW-620, 72 h
Protocol: To assess cell viability, the CellTiter-Glo Luminescent Cell Viability Assay Reagent (Promega, Fitchburg, WI, USA) was added to each well. The assay measured ATP levels as an indicator of cell viability. All data points were normalized to the control samples treated with dimethyl sulfoxide when determining IC50 values. Statistical calculations and data analysis, including IC50 determination, were performed using GraphPad Prism software.

`O=C(Nc1cc(Nc2ncccc2-c2ncnc3[nH]cnc23)ccc1F)c1cc(C(F)(F)F)cc(C(F)(F)F)c1` [SJ-C1044, N-(5-(3-(9H-purin-6-yl)pyridin-2-ylamino)-2-fluorophenyl)-3,5-bis(trifluoromethyl)benzamide] showed a TGI ([1]; 20 mg/kg po QD) of 72%, a TGI ([1]; 40 mg/kg po QD) of 87% and a TGI ([1]; 80 mg/kg po QD) of 107%. For the same molecule, the TGI ([2]; 20 mg/kg po QD) was 58%, the TGI ([2]; 40 mg/kg po QD) was 94% and the TGI ([2]; 80 mg/kg po QD) was 117%. For the same molecule, the TGI ([3]; 20 mg/kg po QD) was 50%, the TGI ([3]; 40 mg/kg po QD) was 63% and the TGI ([3]; 80 mg/kg po QD) was 66%. The “2-week repeated oral toxicity” value [4] was “no indications of toxicity”, the “central nervous system changes” value [5] was “did not result in any abnormal changes” and the IC50 [6] was 23 nM. For the same molecule, the inhibition at 10 µM [6] was 97%, the IC50 [7] was 235 nM and the inhibition at 10 µM [7] was 70%. For the same molecule, the inhibition at 10 µM [8] was 48%, the inhibition at 10 µM [9] was 38% and the inhibition at 10 µM [10] was 37%. It also gave an inhibition at 10 µM [11] of 27%, an inhibition at 10 µM [12] of 24% and an inhibition at 10 µM [13] of 20%. For the same molecule, the inhibition at 10 µM [14] was 18%, the inhibition at 10 µM [15] was 15% and the inhibition at 10 µM [16] was 12%. For the same molecule, the inhibition at 10 µM [17] was 11%, the inhibition at 10 µM [18] was 10% and the inhibition at 10 µM [19] was 5%. It also gave an inhibition at 10 µM [20] of 3%, an inhibition at 10 µM [21] of 3% and an inhibition at 10 µM [22] of 2%. For the same molecule, the inhibition at 10 µM [23] was 0%, the inhibition at 10 µM [24] was -1% and the inhibition at 10 µM [25] was -3%. The inhibition at 10 µM [26] was -4%, the inhibition at 10 µM [27] was -7% and the inhibition at 10 µM [28] was -15%. It also gave an inhibition at 10 µM [29] of -34% and a GI50 [30] of 628 nM.

From paper PMC10378394 (Current Issues in Molecular Biology, 2023)
